From patent publication US20150342906A1, “Anti-sneeze and nose vestibule care - compositions, methods, and devices” (priority 2014, published 2015)

Test: oral 10 mg cetirizine pill during allergic reaction
Format: in vivo, human
Settings: person, 10 mg pill around noon
Description: The irritants in degraded fall leaves and yard debris caused an overwhelming allergic reaction. They took a pill of 10 mg cetirizine around 12 o'clock noon time. […] They suffered a severe running nose and sneezes. They used the anti-sneeze sticks and cotton swabs described in previous examples frequently.

## O=C(O)COCCN1CCN(C(c2ccccc2)c2ccc(Cl)cc2)CC1 (stereo not shown) [cetirizine]
  effect of oral drug on allergic reaction, running nose and sneezes: did not take effect as expected
